Data taken from PMC3816974 (Bioorganic & medicinal chemistry, 2013).
Converted amounts (≈) assume the structure as drawn.

System: M. tuberculosis H37Rv
Experiment: M. tuberculosis H37Rv MIC assay
Format: cell-based, Mycobacterium tuberculosis
Details: not given

| Molecule | MIC, μM (7H9-glucose) |
| --- | --- |
| 2-[N-(Benzoyl)amino]-4-(thiazol-2-yl)thiazole [Compound 92] | >25 µM |

Same assay, conditions: M. tuberculosis H37Rv

| Molecule | antitubercular activity (in words) |
| --- | --- |
| 2-[N-(Benzoyl)amino]-4-(thiazol-2-yl)thiazole [Compound 92] | inactive |
| O=C(Nc1nc(-c2ccccc2)cs1)c1ccccc1 [Compound 90, 2-[N-(Benzoyl)amino]-4-(phenyl)thiazole] | obliterates all activity |
| O=C(Nc1nc(-c2cnccn2)cs1)c1ccccc1 [Compound 91, 2-[N-(Benzoyl)amino]-4-(pyrazin-2-yl)thiazole] | inactive |

Same assay, conditions: M. tuberculosis H37Rv; GAST medium (glycerol and alanine); […]

| Molecule | MIC, μM (GAST) |
| --- | --- |
| 2-[N-(Benzoyl)amino]-4-(thiazol-2-yl)thiazole [Compound 92] | ≥25 µM |

Same assay, conditions: Mycobacterium tuberculosis, H37RV, read-out: MIC, μM (7H9-butyrate)

| Molecule | MIC |
| --- | --- |
| Cc1ccccc1C(=O)Nc1nc(-c2ccccn2)cs1 [Compound 36] | 0.19 to 0.39 µM (≈ 0.0561 to 0.115 µg/mL) |
| Cc1cccc(C(=O)Nc2nc(-c3ccccn3)cs2)c1 [Compound 37] | 0.049 to 0.098 µM (≈ 0.0145 to 0.0289 µg/mL) |
| COc1ccccc1C(=O)Nc1nc(-c2ccccn2)cs1 [Compound 42] | 3.1 to 6.3 µM (≈ 0.965 to 1.96 µg/mL) |
| COc1ccc(C(=O)Nc2nc(-c3ccccn3)cs2)cc1 [Compound 44] | 0.19 to 0.39 µM (≈ 0.0592 to 0.121 µg/mL) |
| O=C(Nc1nc(-c2ccccn2)cs1)c1ccccc1O [Compound 45] | 1.6 to 3.1 µM (≈ 0.476 to 0.922 µg/mL) |
| CC(=O)c1ccc(C(=O)Nc2nc(-c3ccccn3)cs2)cc1 [Compound 48] | 0.19 to 0.39 µM (≈ 0.0614 to 0.126 µg/mL) |
| O=C(Nc1nc(-c2ccccn2)cs1)c1ccccc1Cl [Compound 54] | 0.19 to 0.39 µM (≈ 0.06 to 0.123 µg/mL) |
| O=C(Nc1nc(-c2ccccn2)cs1)c1c(F)cccc1Cl [Compound 66] | 0.39 to 0.78 µM (≈ 0.13 to 0.26 µg/mL) |
| O=C(Nc1nc(-c2ccccn2)cs1)c1ccccn1 [Compound 68] | 3.1 to 6.3 µM (≈ 0.875 to 1.78 µg/mL) |

Same assay, conditions: Mycobacterium tuberculosis, H37RV, read-out: MIC, μM (7H9-glucose)

| Molecule | MIC |
| --- | --- |
| FC(F)(F)c1ccccc1Nc1nc(-c2ccccn2)cs1 [Compound 13] | 12 to 25 µM (≈ 3.86 to 8.03 µg/mL) |
| c1ccc(Nc2nc(-c3ccccn3)cs2)nc1 [Compound 17] | 0.78 to 1.6 µM (≈ 0.198 to 0.407 µg/mL) |
| CCCC(=O)Nc1nc(-c2ccccn2)cs1 [Compound 21, N-[4-(2-pyridinyl)-1,3-thiazol-2-yl)butyramide] | 12 to 25 µM (≈ 2.97 to 6.18 µg/mL) |
| O=C(Nc1nc(-c2ccccn2)cs1)C1CC1 [Compound 25] | 12 to 25 µM (≈ 2.94 to 6.13 µg/mL) |
| CC1CC1C(=O)Nc1nc(-c2ccccn2)cs1 (stereo not shown) [Compound 29] | 6.3 to 12.5 µM (≈ 1.63 to 3.24 µg/mL) |
| O=C(Nc1nc(-c2ccccn2)cs1)c1ccco1 [Compound 30] | 3.1 to 6.3 µM (≈ 0.841 to 1.71 µg/mL) |
| O=C(Nc1nc(-c2ccccn2)cs1)c1ccoc1 [Compound 31] | 3.1 to 6.3 µM (≈ 0.841 to 1.71 µg/mL) |
| O=C(Nc1nc(-c2ccccn2)cs1)c1cccs1 [Compound 32] | 1.6 to 3.1 µM (≈ 0.46 to 0.891 µg/mL) |
| O=C(Nc1nc(-c2ccccn2)cs1)c1ccsc1 [Compound 33] | 1.6 to 3.1 µM (≈ 0.46 to 0.891 µg/mL) |
| Cc1cccc(C(=O)Nc2nc(-c3ccccn3)cs2)c1 [Compound 37] | 0.19 to 0.39 µM (≈ 0.0561 to 0.115 µg/mL) |
| O=C(Nc1nc(-c2ccccn2)cs1)c1cccc(OCc2ccccc2)c1 [Compound 40] | 0.39 to 0.78 µM (≈ 0.151 to 0.302 µg/mL) |
| O=C(Nc1nc(-c2ccccn2)cs1)c1ccc(OCc2ccccc2)cc1 [Compound 41] | 0.19 to 0.39 µM (≈ 0.0736 to 0.151 µg/mL) |
| COc1cccc(C(=O)Nc2nc(-c3ccccn3)cs2)c1 [Compound 43] | 0.19 to 0.39 µM (≈ 0.0592 to 0.121 µg/mL) |
| O=C(Nc1nc(-c2ccccn2)cs1)c1ccccc1O [Compound 45] | 1.6 to 3.1 µM (≈ 0.476 to 0.922 µg/mL) |
| O=C(Nc1nc(-c2ccccn2)cs1)c1ccccc1[N+](=O)[O-] [Compound 49] | 1.6 to 3.1 µM (≈ 0.522 to 1.01 µg/mL) |
| O=C(Nc1nc(-c2ccccn2)cs1)c1cccc([N+](=O)[O-])c1 [Compound 50] | 1.6 to 3.1 µM (≈ 0.522 to 1.01 µg/mL) |
| O=C(Nc1nc(-c2ccccn2)cs1)c1ccccc1Br [Compound 51] | 0.39 to 0.78 µM (≈ 0.14 to 0.281 µg/mL) |
| O=C(Nc1nc(-c2ccccn2)cs1)c1cccc(Br)c1 [Compound 52] | 0.098 to 0.19 µM (≈ 0.0353 to 0.0684 µg/mL) |
| O=C(Nc1nc(-c2ccccn2)cs1)c1ccccc1Cl [Compound 54] | 0.39 to 0.78 µM (≈ 0.123 to 0.246 µg/mL) |
| O=C(Nc1nc(-c2ccccn2)cs1)c1cccc(Cl)c1 [Compound 55, N-(3-Chlorobenzoyl)-4-(2-pyridinyl)-1,3-thiazol-2-amine] | 0.19 to 0.39 µM (≈ 0.06 to 0.123 µg/mL) |
| O=C(Nc1nc(-c2ccccn2)cs1)c1ccccc1F [Compound 57] | 1.6 to 3.1 µM (≈ 0.479 to 0.928 µg/mL) |
| O=C(Nc1nc(-c2ccccn2)cs1)c1cccc(F)c1 [Compound 58] | 0.19 to 0.39 µM (≈ 0.0569 to 0.117 µg/mL) |
| O=C(Nc1nc(-c2ccccn2)cs1)c1ccc(F)cc1F [Compound 61] | 0.39 to 0.78 µM (≈ 0.124 to 0.248 µg/mL) |
| O=C(Nc1nc(-c2ccccn2)cs1)c1ccc(F)c(F)c1 [Compound 64] | 1.6 to 3.1 µM (≈ 0.508 to 0.984 µg/mL) |
| O=C(Nc1nc(-c2ccccn2)cs1)c1cccnc1Cl [Compound 67] | 0.39 to 0.78 µM (≈ 0.124 to 0.247 µg/mL) |
| O=C(Nc1nc(-c2ccccn2)cs1)c1ccncc1 [Compound 70] | 1.6 to 3.1 µM (≈ 0.452 to 0.875 µg/mL) |

Same assay, conditions: relative to 1

| Molecule | fold better MIC than the corresponding N-phenyl 1 |
| --- | --- |
| O=C(Nc1nc(-c2ccccn2)cs1)c1ccccc1 [Compound 35, 2-[N-(Benzoyl)amino]-4-(pyridin-2-yl)thiazole] | 64 fold |

Same assay, conditions: relative to 35

| Molecule | fold increase in potency relative to benzoyl 35 | fold loss of potency relative to the parent thiazole 35 |
| --- | --- | --- |
| Cc1cccc(C(=O)Nc2nc(-c3ccccn3)cs2)c1 [Compound 37] | 2- to 4 fold |  |
| O=C(Nc1cc(-c2ccccn2)cs1)c1ccccc1 [Compound 75, 2-[N-(Benzoyl)amino]-4-(pyridin-2-yl)thiophene] |  | ≥ 64 fold |
| O=C(Nc1nc(-c2ccccn2)c[nH]1)c1ccccc1 [Compound 78, 2-[N-(Benzoyl)amino]-4-(pyridin-2-yl)imidazole] |  | 16- to 64 fold |
| O=C(Nc1nc(-c2ccccn2)co1)c1ccccc1 [Compound 82, 2-[N-(Benzoyl)amino]-4-(pyridin-2-yl)oxazole] |  | 16- to 64 fold |

Same assay, conditions: relative to 69

| Molecule | fold improvement of activity over nicotinoyl 69 |
| --- | --- |
| O=C(Nc1nc(-c2ccccn2)cs1)c1cccnc1Cl [Compound 67] | 8- to 16 fold |

Same assay, conditions: relative to oxazole 82

| Molecule | regain in potency relative to 82 |
| --- | --- |
| O=C(Nc1nnc(-c2ccccn2)o1)c1ccccc1F [Compound 83, 2-[N-(2-Fluorobenzoyl)amino]-5-(pyridin-2-yl)-1,3,4-oxadiazole] | 2–4 |

System: Vero cells
Experiment: Vero cell cytotoxicity MTT assay
Format: cell-based, green monkey
Details: 72 h, concentration that inhibited 50% viability

| Molecule | EC50, μM |
| --- | --- |
| O=C(Nc1nc(-c2ccccn2)cs1)c1ccccc1OCc1ccccc1 [Compound 39] | insol. |

System: Mtb
Experiment: not given
Details: reported values; cited from earlier work

| Molecule | reported MIC (HTS results) |
| --- | --- |
| Fc1ccc(Nc2nc(-c3ccccn3)cs2)cc1 [Compound 12] | 2 µM |
| FC(F)(F)c1ccccc1Nc1nc(-c2ccccn2)cs1 [Compound 13] | < 0.3 µM |
| Clc1ccc(Nc2nc(-c3ccccn3)cs2)nc1 [Compound 18] | 0.35 µM |
| Cc1cccc(Nc2nc(-c3ccccn3)cs2)n1 [Compound 19] | 0.35 µM |
